Legend:
Type in all cases: in vivo
[1] = test system: barnyardgrass (Echinochloa crus-galli); test: Test B flooded paddy test; conditions: Flood, 250 g ai/ha; 0 to 100 scale where 0 is no effect and 100 is complete control; 13 to 15 d
In short: (§1)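 Percent control, visually estimated after 13–15 d in the greenhouse on a 0–100 basis, compares treated pots with untreated ones; compound was put into paddy water 3 cm above the soil when plants had two leaves.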

[2] = test system: ducksalad (Heteranthera limosa); test: Test B flooded paddy test; conditions: Flood, 250 g ai/ha; 0 to 100 scale where 0 is no effect and 100 is complete control; 13 to 15 d
In short: as §1

[3] = test system: sedge, umbrella (small-flower umbrella sedge, Cyperus difformis); test: Test B flooded paddy test; conditions: Flood, 250 g ai/ha; 0 to 100 scale where 0 is no effect and 100 is complete control; 13 to 15 d
In short: as §1

rice (Oryra sativa) = test: Test B flooded paddy test; conditions: Flood, 250 g ai/ha; 0 to 100 scale where 0 is no effect and 100 is complete control; 13 to 15 d
In short: as §1

[4] = test system: barnyardgrass (Echinochloa crus-galli); test: Test A postemergence
In short: (§2)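 Visual injury scores from 0, no effect, to 100, complete control, were assigned versus untreated controls roughly 10 d after treatment in the greenhouse. Test chemicals, formulated with surfactant in a non-phytotoxic solvent, were applied to planted seeds as a preemergence soil spray or postemergence to one- to two-leaf plants 2 to 10 cm tall, in loam–sand soil.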

[5] = test system: ragweed (common ragweed, Ambrosia elatior); test: Test A postemergence
In short: as §2

corn (Zea mays) = test: Test A postemergence
In short: as §2

[6] = test system: blackgrass (Alopecurus myosuroides); test: Test A postemergence
In short: as §2

[7] = test system: giant foxtail (Setaria faberii); test: Test A postemergence
In short: as §2

[8] = test system: pigweed (Amaranthus retroflexus); test: Test A postemergence
In short: as §2

Kochia (Kochia scoparia) [9] = test: Test A postemergence
In short: as §2

[10] = test system: ryegrass, Italian (Italian ryegrass, Lolium multiflorum); test: Test A postemergence
In short: as §2

[11] = test system: Galium (catchweed bedstraw, Galium aparine); test: Test A postemergence
In short: as §2

[12] = test system: wheat (Triticum aestivum); test: Test A postemergence
In short: as §2

[13] = test system: barnyardgrass (Echinochloa crus-galli); test: Test A preemergence; conditions: Preemergence
In short: as §2

[14] = test system: ragweed (common ragweed, Ambrosia elatior); test: Test A preemergence; conditions: Preemergence
In short: as §2

[15] = test system: giant foxtail (Setaria faberii); test: Test A preemergence; conditions: Preemergence
In short: as §2

[16] = test system: pigweed (Amaranthus retroflexus); test: Test A preemergence; conditions: Preemergence
Kochia (Kochia scoparia) [17] = test: Test A preemergence; conditions: Preemergence
In short: as §2

[18] = test system: ryegrass, Italian (Italian ryegrass, Lolium multiflorum); test: Test A preemergence; conditions: Preemergence
In short: as §2

[19] = test system: barnyardgrass (Echinochloa crus-galli); test: Test C flooded paddy test; conditions: Flood, 0 is no effect, 100 is complete control
Source text: (§3) Plant species in the flooded paddy test consisted of rice (Oryza sativa), sedge, umbrella (small-flower umbrella sedge, Cyperus difformis), ducksalad (Heteranthera limosa), and barnyardgrass (Echinochloa crus-galli) grown to the 2-leaf stage for testing. At time of treatment, test pots were flooded to 3 cm above the soil surface, treated by application of test compounds directly to the paddy water, and then maintained at that water depth for the duration of the test. Treated plants and controls were maintained in a greenhouse for 13 to 15 d, after which time all species were compared to controls and visually evaluated. Plant response ratings, summarized in Table C, are based on a scale of 0 to 100 where 0 is no effect and 100 is complete control. A dash (-) response means no test result.

rice (Oryza sativa) = test: Test C flooded paddy test; conditions: Flood, 0 is no effect, 100 is complete control
Source text: as §3

[20] = test system: ducksalad (Heteranthera limosa); test: Test C flooded paddy test; conditions: Flood, 0 is no effect, 100 is complete control
Source text: as §3

[21] = test system: sedge, umbrella (small-flower umbrella sedge, Cyperus difformis); test: Test C flooded paddy test; conditions: Flood, 0 is no effect, 100 is complete control
Source text: as §3

[22] = 125 g ai/ha, postemergence, visual injury rating on 0 to 100 scale (0 no effect, 100 complete control), approx. 10 d
[23] = Postemergence, 500 g ai/ha, 0 to 100 scale where 0 is no effect and 100 is complete control
[24] = 125 g ai/ha, visual injury after approximately 10 d, 0 to 100 scale where 0 is no effect and 100 is complete control
[25] = 500 g ai/ha, visual injury approx. 10 d

O=C1NCC(c2cccc(F)c2F)C1C(=O)Nc1cccc(F)c1F (stereo not shown) [Compound 487]
Plant response rating, Barnyardgrass [1]: 75 | Plant response rating, Ducksalad [2]: 95 | Plant response rating, Sedge, Umbrella [3]: 0 | Plant response rating, Rice (rice (Oryra sativa)): 0 | Barnyardgrass plant response rating [4, 22]: 80 | Plant response rating, Barnyardgrass [4, 23]: 90 | Ragweed plant response rating [5, 22]: 0 | Plant response rating, Ragweed [5, 23]: 0 | Corn plant response rating (corn (Zea mays); [22]): 0 | Plant response rating, Corn (corn (Zea mays); [23]): 20 | Blackgrass plant response rating [6, 22]: 0 | Plant response rating, Blackgrass [6, 23]: 30 | Foxtail, Giant plant response rating [7, 22]: 80 | Plant response rating, Foxtail, Giant [7, 23]: 90 | Pigweed plant response rating [8, 22]: 0 | Plant response rating, Pigweed [8, 23]: 20 | Kochia plant response rating (Kochia (Kochia scoparia) [9]; [22]): 0 | Plant response rating, Kochia (Kochia (Kochia scoparia) [9]; [23]): 30 | Ryegrass, Italian plant response rating [10, 22]: 0 | Plant response rating, Ryegrass, Italian [10, 23]: 20 | Galium plant response rating [11, 22]: 0 | Plant response rating, Galium [11, 23]: 0 | Wheat plant response rating [12, 22]: 0 | Plant response rating, Wheat [12, 23]: 20 | Plant response rating, Barnyardgrass [13, 24]: 90 | Barnyardgrass plant response rating (0 to 100 scale, 0 is no effect, 100 is complete control) [13, 25]: 90 | Plant response rating, Ragweed [14, 24]: 30 | Ragweed plant response rating (0 to 100 scale, 0 is no effect, 100 is complete control) [14, 25]: 30 | Plant response rating, Foxtail, Giant [15, 24]: 90 | Foxtail, Giant plant response rating (0 to 100 scale, 0 is no effect, 100 is complete control) [15, 25]: 90 | Plant response rating, Pigweed [16, 24]: 0 | Pigweed plant response rating (0 to 100 scale, 0 is no effect, 100 is complete control) [16, 25]: 30 | Plant response rating, Kochia (Kochia (Kochia scoparia) [17]; [24]): 30 | Kochia plant response rating (0 to 100 scale, 0 is no effect, 100 is complete control) (Kochia (Kochia scoparia) [17]; [25]): 60 | Plant response rating, Ryegrass, Italian [18, 24]: 20 | Ryegrass, Italian plant response rating (0 to 100 scale, 0 is no effect, 100 is complete control) [18, 25]: 40 | Plant response rating (scale of 0 to 100), Barnyardgrass ([19]; 31 g ai/ha): 0 | Plant response rating (scale of 0 to 100), Barnyardgrass ([19]; 62 g ai/ha): 15 | Plant response rating (scale of 0 to 100), Barnyardgrass ([19]; 125 g ai/ha): 20 | Plant response rating (scale of 0 to 100), Barnyardgrass ([19]; 250 g ai/ha): 65 | Plant response rating (scale of 0 to 100), Rice (rice (Oryza sativa); 31 g ai/ha): 0 | Plant response rating (scale of 0 to 100), Rice (rice (Oryza sativa); 62 g ai/ha): 0 | Plant response rating (scale of 0 to 100), Rice (rice (Oryza sativa); 125 g ai/ha): 0 | Plant response rating (scale of 0 to 100), Rice (rice (Oryza sativa); 250 g ai/ha): 0 | Plant response rating (scale of 0 to 100), Ducksalad ([20]; 31 g ai/ha): 30 | Plant response rating (scale of 0 to 100), Ducksalad ([20]; 62 g ai/ha): 45 | Plant response rating (scale of 0 to 100), Ducksalad ([20]; 125 g ai/ha): 85 | Plant response rating (scale of 0 to 100), Ducksalad ([20]; 250 g ai/ha): 100 | Plant response rating (scale of 0 to 100), Sedge, Umbrella ([21]; 31 g ai/ha): 0 | Plant response rating (scale of 0 to 100), Sedge, Umbrella ([21]; 62 g ai/ha): 0 | Plant response rating (scale of 0 to 100), Sedge, Umbrella ([21]; 125 g ai/ha): 0 | Plant response rating (scale of 0 to 100), Sedge, Umbrella ([21]; 250 g ai/ha): 0
